The results in this text go back to patent US20260015341A1, “PI3K INHIBITOR, PREPARATION METHOD THEREFOR, AND USE THEREOF” (HINOVA PHARMACEUTICALS INC., priority 2022, published 2026).

pIC50: −log10 of the molar value.

One series concerns MCF-10A cells. The series is described as follows: Inhibitory effects on the proliferation of MCF-10A cells (CCK8). Particulars: Homo sapiens, 144 h, 6 days. Type of series: cell-based. On the procedure: Experimental Example 2: Experiment of Inhibitory Effects on the Proliferation of MCF-10A Cells
MCF-10A cells (Cobioer Bio. #CBP60419MCF) were diluted with complete medium (Cobioer Bio. #CBP60419), seeded in 96-well plate (Corning #3599) at 500 cells/well, and then cultured for 24 h. Then, gradiently diluted compounds were added (starting at a final concentration of 10 μM, 3-fold dilution, 9 dose concentrations), and the final volume was adjusted to 100 μL/well. The plate was incubated at 37° C. under 5% CO2 for 6 days. After the cultivation was completed, CCK8 reagent (Signalway Antibody Bio. #CP002) was added at 10 μL/well, and then the plate was further incubated at 37° C. under 5% CO2 for 2-3 hours. The OD450 nm value was obtained by a microplate reader.
The results are shown in the MCF-OA IC50 column in Table 2.

The next series deals with T47D cells. Put plainly: Inhibitory effects on the proliferation of T47D cells (CellTiter-Glo). Type of series: cell-based. Particulars: Homo sapiens, 168 h, 7 days. The method, then: Experimental Example 3: Experiment of Inhibitory Effects on the Proliferation of T47D Cells
T47D cells (ATCC. #HTB-133) were diluted with RPMI 1640 (Gibco #22400-089) containing 10% FBS (Hyclone #SH30084.03), seeded in 96-well plate (Biosharp #BS-MP-96W) at 1000 cells/well, and then cultured for 24 h. Then, gradiently diluted compounds were added (starting at a final concentration of 10 μM, 3-fold dilution, 9 dose concentrations), and the final volume was adjusted to 150 μL/well. The plate was incubated at 37° C. under […] for 7 days. After the cultivation was completed, CellTiter-Glo reagent (Promega #G7573) was added at 75 μL/well, and then the plate was further incubated at 25° C. for 10 min. After that, the chemiluminescence value was read using an instrument.
The results are shown in the T47D IC50 column in Table 2.
A general note: ATP-based viability assays read luminescence as a measure of living cells.

The next series is described as follows: Pharmacokinetics in rats. Type of series: in vivo, SD rats. Particulars: rat; for AUC / half-life / clearance / Vd: male, SD, plasma; for Vd: read-out: VSS. The method, then:
Experimental Example 4: The Pharmacokinetics of the Compound According to the Present Invention in Rats
(§1) 9 healthy adult male SD rats (three for each administration route of each compound) were fasted overnight (>12 h) before gavage, with free access to water; 4 hours after administration, rats could take food, and were administered via tail vein injection and gastric lavage, respectively. At different time points, intravenous blood sample was collected and anti-coagulated, wherein the anticoagulant was EDTA-K2 (the sample was placed in an ice bath after blood collection). The plasma was separated by centrifugation at 4° C. and 6000 g for 5 min, and stored at −70° C. for testing. The plasma concentration of compounds was determined by LC-MS/MS method.
(§2) The plasma concentration of compound at all time points was used to calculate the main pharmacokinetic parameters with Winnolin 8.3 non-compartmental model.
(§3) The area under the concentration-time curve AUCall value: calculated using the trapezoidal method; AUCinf=AUCall+Ct/ke, Ct is the plasma concentration at the last measurable time point, and ke is the elimination rate constant;
The elimination half life t1/2=0.693/ke;
(§4) The clearance rate CL=D/AUCinf (D is the administration dosage);
The volume of distribution at steady state Vss=CL×MRT, The mean retention time MRT=AUMC/AUC;

A short description of series [1]: Pharmacokinetics in beagle dogs. Type of series: in vivo. The conditions noted are these: beagle dog. The method, then:
Experimental Example 5: The Pharmacokinetics of the Compound According to the Present Invention in Beagle Dogs
as §1, with “beagle dogs” for “SD rats”, “forelimb venous” for “intravenous”, “3200” for “4° C. and 6000”, “10” for “5”
as §2, §3, §4
The volume of distribution at steady state Vss=CL×MRT. The mean retention time MRT=AUMC/AUC;

Series [2] concerns the target PI3Kα[WT]/[E542K]/[E545K]/[H1047R]/PI3Kβ/γ/δ. The series is described as follows: PI3K enzyme activity assay (ADP-Glo). The conditions noted are these: PI3K kinase reaction, isoform not given. Type of series: biochemical. On the procedure:
Experimental Example 1: PI3Kα[WT]/[E542K]/[E545K]/[H1047R]/PI3Kβ/γ/δ Enzyme Activity Assay
PI3Kα[WT], PI3Kα[E542K], PI3Kα[E545K], PI3Kα[H1047R], PI3Kβ, PI3Kγ and PI3Kδ kinase reaction was performed in 384-well plate (PerkinElmer, #6008280), with a reaction system of 4 μL. PI3Kα[WT] enzyme solution (Promega, #V1721) or PI3Kα[E542K] enzyme solution (CarnaBio, #11-413-20N) or PI3Kα[E545K] enzyme solution (CarnaBio, #11-414-20N) or PI3Kα[H1047R] enzyme solution (Promega, #V1741) or PI3Kβ enzyme solution (Promega, #V1751) or PI3Kγ enzyme solution (ThermoFisher, #PV4786) or PI3Kδ enzyme solution (ThermoFisher, #PV6451) were added to 384-well plate, and then gradiently diluted compounds were added (starting at a final concentration of 10 μM, 3-fold dilution, 10 doses), followed by adding PIP2: 3PS (Promega, #V1701) and ATP solution (Promega, #V915B) to the plate. After incubation at 25° C. for 1 h, ADP-Glo reagent buffer (Promega, #V9102) was added to each well. The plate was sealed and incubated at 25° C. for 40 min, and then 10 μL of ADP-Glo detection buffer (Promega, #V9102) was added to each well. After incubating at 25° C. for 40 min, the chemiluminescence value was read using an instrument.
The experimental results are shown in the ADP Glo IC50 column in Table 2.
On the technique in general: In ADP-Glo the light output rises with the ADP produced.

Where [3] appears, read: iv (tail vein injection), 1 mg/kg.
[4] abbreviates: male, plasma, po, ig (intragastric), 3 mg/kg.
The mark [5] stands for this setting: male, plasma, po, ig (intragastric), 10 mg/kg.

The pIC50 is the negative decadic logarithm of the IC50, by convention in mol/L. As a reminder, the AUC is the area under the concentration-time curve, a measure of exposure. Read a high AUC as high exposure. The half-life is the time in which the quantity being followed falls by half. As a reminder, the clearance is the rate of elimination divided by the concentration. Higher therefore signals a high capacity for elimination. Turning to `Cc1cc([C@@H](C)Nc2ccc(Cl)nc2C(=O)O)c2nc(-c3ccc(F)cc3)n(C)c(=O)c2c1` [Compound 65], the negative logarithm of the IC50 (pIC50) is under 5.30 in the series on MCF-10A cells and over 6.00 in the series on T47D cells. The AUC in “Pharmacokinetics in rats” (po, ig (intragastric), 3 mg/kg) came out at 3430 ng·h/mL; in the series “Pharmacokinetics in rats” (setting [3]) it was 1000 ng·h/mL; in series [1] (setting [4]), 760 ng·h/mL; in series [1] (setting [5]) it was 2370 ng·h/mL; in series [1] (male, plasma, iv, 1 mg/kg), 954 ng·h/mL. For the same compound, the half-life in “Pharmacokinetics in rats” (po, ig (intragastric), 3 mg/kg) is 1.34 h; in “Pharmacokinetics in rats” (setting [3]) it was 2.95 h; in series [1] (setting [4]), 2.13 h; in series [1] (setting [5]), 4.19 h; in series [1] (male, plasma, iv, 1 mg/kg), 2.1 h. The clearance in “Pharmacokinetics in rats” (setting [3]) turned out to be 16.3 mL/min/kg; in series [1] (male, plasma, iv, 1 mg/kg), 17.4 mL/min/kg. Moreover, the Vd in the series “Pharmacokinetics in rats” (setting [3]) worked out at 1.71 L/kg; in series [1] (male, plasma, iv, 1 mg/kg, read-out: VSS), 0.828 L/kg. For the same compound, the F in the series “Pharmacokinetics in rats” (ig (intragastric), 3 mg/kg) was determined as 79.6%; in series [1] (ig (intragastric), 3 mg/kg), 27.1%; in series [1] (ig (intragastric), 10 mg/kg), 24.9%.
Turning to `C[C@@H](Nc1ccc(Cl)cc1C(=O)O)c1cc(F)cc2c(=O)n(C)c(-c3ccc(F)cn3)nc12` [Compound 80], the pIC50 in series [2] was over 6.00; in the series with MCF-10A cells, under 5.30; in the series with T47D cells it was over 6.00.
Turning to `Cc1cc([C@@H](C)Nc2ccsc2C(=O)O)c2nc(-c3ccc(F)cn3)n(C)c(=O)c2c1` [Compound 82], the values for the pIC50 (in series [2]; with MCF-10A cells; with T47D cells) were over 6.00, under 5.30 and under 5.30, respectively.
Regarding `C[C@@H](Nc1ccc(Cl)nc1C(=O)O)c1cc(F)cc2c(=O)n(C)c(-c3ncc(Cl)cn3)nc12` [Compound 99], the pIC50 is over 6.00 in series [2], under 5.30 with MCF-10A cells and over 6.00 in the series on T47D cells.
In the case of `C[C@@H](Nc1ccc(Cl)nc1C(=O)O)c1cc(F)cc2c(=O)n(C)c(-c3ncccn3)nc12` [Compound 100], the negative logarithm of the IC50 (pIC50) in series [2] was over 6.00; with MCF-10A cells it was under 5.30; in the series on T47D cells, over 6.00.
As for `COC(=O)c1nc(Cl)ccc1N[C@H](C)c1cc(C)cc2c(=O)n(C)c(-c3ccncc3)nc12` [Compound 103], the pIC50 in series [2] was over 6.00; in the series with MCF-10A cells, under 5.30; in the series on T47D cells, over 6.00.
In turn, `Cc1cc([C@@H](C)Nc2ccc(Cl)nc2C(=O)O)c2nc(-c3ccccc3)n(C)c(=O)c2c1` [Compound 115] showed a pIC50 in the series with MCF-10A cells of under 5.30. The pIC50 in the series on T47D cells was under 5.30. For the same compound, in the series “Pharmacokinetics in rats” (po, ig (intragastric), 3 mg/kg), the AUC is 2360 ng·h/mL and the half-life is 3.83 h. Further, in “Pharmacokinetics in rats” (setting [3]), the AUC worked out at 978 ng·h/mL, the clearance came out at 17.5 mL/min/kg, the half-life was 3.79 h and the Vd was 2.14 L/kg. The same compound had a F in the series “Pharmacokinetics in rats” (ig (intragastric), 3 mg/kg) of 80.3%.
`Cc1cc([C@@H](C)NC2CCC(=O)NC2=O)c2oc(-c3ccc(F)cc3F)cc(=O)c2c1` (stereo partly shown) [Compound 117]: the pIC50 (in series [2]; in the series on MCF-10A cells; in the series with T47D cells) was under 5.30 each time.
